Results reported in PubChem BioAssay (NCI).
“And” between values parts separate entries of the source, which are not always exact repeats. Identical values can stand only once.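 Each compound was tested at five concentrations against cells in 96-well plates for 48 hours. GI50 = concentration required for 50% inhibition of growth. TGI: concentration producing complete growth inhibition.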

Legend:
Experiment in all cases: growth of human tumour cells (NCI), 48 h
KM12 colon = tested on: KM12 colon
MDA-MB-231 breast = tested on: MDA-MB-231 breast
MCF7 breast = tested on: MCF7 breast
NCI-H23 lung = tested on: NCI-H23 lung
A498 renal = tested on: A498 renal
T-47D breast = tested on: T-47D breast
PC-3 prostate = tested on: PC-3 prostate
NCI/ADR-RES ovarian = tested on: NCI/ADR-RES ovarian
HL-60(TB) leukemia = tested on: HL-60(TB) leukemia
UACC-62 melanoma = tested on: UACC-62 melanoma

SMILES | TGI (KM12 colon) | TGI (MDA-MB-231 breast) | TGI (MCF7 breast) | TGI (NCI-H23 lung) | TGI (A498 renal) | TGI (T-47D breast) | TGI (PC-3 prostate) | TGI (NCI/ADR-RES ovarian) | TGI (HL-60(TB) leukemia) | TGI (UACC-62 melanoma) | GI50 (MDA-MB-231 breast) | GI50 (MCF7 breast) | GI50 (A498 renal) | GI50 (T-47D breast) | GI50 (PC-3 prostate) | GI50 (NCI/ADR-RES ovarian) | GI50 (KM12 colon) | GI50 (NCI-H23 lung) | GI50 (HL-60(TB) leukemia) | GI50 (UACC-62 melanoma)
COc1c(CC=C(C)C)c(O)c(C(CC(C)C)c2c(O)c(CC=C(C)C)c(O)c(C(C)=O)c2O)c(O)c1C(C)=O (stereo not given) | 5.05 µM | 7.66 µM | 4.84 µM | 0.877 µM | 1.24 µM | 16 µM | 10.3 µM | 10.2 µM | 3.28 µM | 2.22 µM |  |  |  |  |  |  |  |  |  | 
CC(C)(C)c1cc(C(=O)O)c2c(c1)C(=O)OC2(c1ccccc1)c1ccccc1C(=O)O (stereo not given) | > 100 µM | > 100 µM | > 100 µM | > 100 µM | > 100 µM | > 100 µM | > 100 µM | > 100 µM | > 100 µM | > 100 µM | > 100 µM | > 100 µM | > 100 µM | > 100 µM | > 100 µM | > 100 µM |  |  |  | 
Fc1ccc2nc(-c3nc(-c4ccccc4)n4ccccc34)[nH]c2c1 | 10.2 µM | 10.7 µM | 5.59 µM | 17 µM | 6.46 µM | 4.76 µM | 4.24 µM | 6.01 µM | > 100 µM | 4.96 µM | 2.45 µM | 1.37 µM | 2.08 µM | 1.06 µM | 1.82 µM | 2.23 µM | 3.31 µM | 3.54 µM | 14.9 µM | 1.96 µM
CN1CCCC1c1cccnc1.O=C(O)c1ccccc1O.O=C([O-])c1ccccc1[OH2+].O=C([O-])c1ccccc1[OH2+].[Mn+2] (stereo not given) | > 100 µM | > 100 µM | > 100 µM | > 100 µM | > 100 µM | > 100 µM | > 100 µM | > 100 µM | > 100 µM | > 100 µM | > 100 µM | 40.3 µM | > 100 µM | > 100 µM | 58.1 µM | > 100 µM | > 100 µM | > 100 µM | > 100 µM | > 100 µM
c1ccc(CN2COc3c(ccc4c5c(ccc34)CN(Cc3ccccc3)CO5)C2)cc1 | > 100 µM | > 100 µM | > 100 µM | > 100 µM | > 100 µM | > 100 µM | > 100 µM | > 100 µM | > 100 µM | > 100 µM |  |  |  |  |  |  |  |  |  | 
NCc1ccc(-c2nc(-c3ccc(Cl)c(O)c3)c(-c3ccncc3)[nH]2)cc1 | > 25 µM | > 25 µM | > 25 µM | > 25 µM | > 25 µM | > 25 µM | > 25 µM | > 25 µM | > 25 µM | > 25 µM | 11.7 µM | > 25 µM | > 25 µM | > 25 µM | > 25 µM | > 25 µM | > 25 µM | 13.5 µM | 15.2 µM | 2.53 µM
N#Cc1cc2c(cc1Cl)Sc1nnc(Nc3cccc4ccccc34)n1S2(=O)=O | 10.1 µM | 6.96 µM | 4.8 µM | 3.43 µM | 31.7 µM | 3.67 µM | 18 µM | 4.4 µM | 20.2 µM | 5.28 µM | 2.49 µM | 2.1 µM | 17.5 µM | 1.25 µM | 4.75 µM | 2.11 µM | 2.99 µM | 1.8 µM | 2.75 µM | 2.14 µM
Nc1nc(-c2ccc(Cl)cc2)nc2c1sc(=S)n2-c1ccccc1 | > 100 µM | 10.6 µM | > 100 µM | 18.2 µM | 5.19 µM | 5.54 µM | > 100 µM | 19.8 µM | > 100 µM | 22.6 µM | 3.44 µM | 4.29 µM | 1.92 µM | 2.13 µM | 17.3 µM | 3.7 µM | 5.4 µM | 4.05 µM | > 100 µM | 4.32 µM
CCn1ccnc1C(=O)/C=C/c1ccc(CC(=O)Nc2ccc(F)cc2)cc1 | 8.33 µM | > 16.7 µM | > 16.7 µM | > 16.7 µM | 15.5 µM | > 16.7 µM | > 16.7 µM | > 16.7 µM | 10.9 µM | 6.57 µM | 4.36 µM | 2.52 µM | 3.73 µM | 3.79 µM | 7.06 µM | 5.37 µM | 3.06 µM | 4.25 µM | 3.18 µM | 2.83 µM
C/C(=N\NC(=S)N1CCN(c2ccccn2)CC1)c1ncccn1 | 5.92 µM and 15.1 µM | 19.4 µM | 13.4 µM | 4.81 µM and 19.3 µM | 6.19 µM and 16.2 µM | 18.5 µM | 15.9 µM | 3.95 µM and 0.403 µM | 0.0274 µM and 0.103 µM | 0.58 µM and 4.19 µM |  |  |  |  | 0.0298 µM |  | 0.153 µM | < 0.016 µM |  | 0.057 µM
